Measured values reported in ChEMBL document CHEMBL1201862, “PubChem BioAssay data set” (2004).
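1) Cells in 96-well plates. 2) Compound, 48 h, 5 concentrations. 3) Linear interpolation between surrounding doses. 4) Unreached endpoint = highest concentration. GI50 is the concentration that inhibits growth by half.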 Activity calls are given as the source filed them. No stated cut-off is given here; in the data, active = GI50 up to about 1.1 µM and inactive = higher.

Legend:
Assay in all cases: NCI tumour cell line growth inhibition, 48 h
IGROV-1 = system: IGROV-1
786-0 = system: 786-0
HOP-62 = system: HOP-62
HOP-92 = system: HOP-92
UO-31 = system: UO-31
HCT-116 = system: HCT-116
OVCAR-5 = system: OVCAR-5
EKVX = system: EKVX
CAKI-1 = system: CAKI-1
SK-MEL-2 = system: SK-MEL-2
M14 = system: M14
NCI-H226 = system: NCI-H226
SR = system: SR
OVCAR-8 = system: OVCAR-8
A498 = system: A498
RPMI-8226 = system: RPMI-8226
UACC-257 = system: UACC-257
MDA-MB-435 = system: MDA-MB-435
SF-295 = system: SF-295
SN12C = system: SN12C

Measured: GI50

Oc1cc(O)c2c(c1)O[C@H](c1cc(O)c(O)c(O)c1)[C@H](O)C2 [EPIGALLOCATECHIN]
inactive: IGROV-1 20.4 µM | 786-0 18.2 µM | HOP-62 19.7 µM | HOP-92 20.7 µM | UO-31 18.5 µM | HCT-116 19.2 µM | OVCAR-5 15.6 µM | EKVX > 10 µM | CAKI-1 33.1 µM | SK-MEL-2 7.96 µM | M14 23.6 µM | NCI-H226 26.4 µM | SR 14.4 µM | OVCAR-8 16.1 µM | A498 > 100 µM | RPMI-8226 13.8 µM | UACC-257 > 100 µM | MDA-MB-435 6.9 µM | SF-295 30.5 µM | SN12C 20.5 µM

Oc1c2ccccc2c2c3c(cccc13)N=N2 [SP-600125]
inactive: IGROV-1 11.4 µM | 786-0 27.1 µM | HOP-62 69.3 µM | HOP-92 37.6 µM | UO-31 10.5 µM | HCT-116 44.6 µM | OVCAR-5 24.4 µM | EKVX 20 µM | CAKI-1 3.56 µM | SK-MEL-2 29 µM | M14 > 100 µM | NCI-H226 22.9 µM | SR 13.1 µM | OVCAR-8 22 µM | A498 7.03 µM | RPMI-8226 18.8 µM | UACC-257 29.5 µM | MDA-MB-435 12.8 µM | SF-295 22.5 µM | SN12C 14.8 µM
